Results on eleven compounds are retold here after PubChem BioAssay (NCI).

Molecules are shown by their SMILES.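 Each compound was tested at five concentrations against cells in 96-well plates for 48 hours. Abbreviation: GI50, concentration required for 50% inhibition of growth. TGI is the concentration that stops growth completely.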

Some test systems named below: DU-145 prostate; SR leukemia; MDA-MB-435; P388 leukemia; HS 578T breast.
Holding throughout (assay): NCI tumour cell line growth inhibition, 48 h

`Fc1ccc(C2CC(c3cccc(Nc4ccncc4)c3)=NN2c2cc(Cl)cc(Cl)c2)cc1` (stereo not drawn): the GI50 in the assay on DU-145 prostate is 1.85 µM; with SR leukemia, 2.06 µM; in the assay with MDA-MB-435, 1.68 µM. Moreover, the TGI in the assay with DU-145 prostate was 3.32 µM; with SR leukemia it was 4.92 µM; in the assay on MDA-MB-435, 3.13 µM.
Turning to `COC(=O)c1nc(-c2ccc3c(n2)C(=O)C(N)=C(OC)C3=O)c(N)c(-c2ccc(OC)c(OC)c2O)c1C`, the TGI with P388 leukemia turned out to be 3.74 µM.
Regarding `COc1ccc(C[C@H](N)C(=O)N2C[C@H](CO)C[C@H](n3ccc(=O)[nH]c3=O)C2)cc1`, the TGI in the assay with SR leukemia is more than 100 µM.
Turning to `CC(=O)OCc1cc(=O)n(C)c2c3c4c(cc12)c(C)cc(=O)n4CO3`, in the assay with P388 leukemia, the TGI was found to be 4.99 µM.
In the case of `CN(C)CCOC(=O)c1ccc(N)cc1`, the TGI in the assay on DU-145 prostate, in the assay with HS 578T breast and with MDA-MB-435 was more than 100 µM each time.
`O=C1c2ccccc2C(=O)c2c1ccc1c2N=C(c2ccc(F)cc2)CC(c2ccc(Cl)c(Cl)c2)N1` (stereo not drawn): in the assay on SR leukemia, the TGI is 54.4 µM.
In turn, `C[C@@H]1C[C@]2(C[C@@H](C)[C@H]3C(C[C@@]4(C)CCC[C@@H]5C6=C[C@H](CCC34C)OC6=CC(=O)OC5(C)C)O2)OC1=O` (stereo partly drawn) showed a TGI with P388 leukemia of more than 51.5 µM.
As for `CCOC(=O)c1c2c(n3ccc(NC(=O)OC(C)(C)C)cc13)C(=O)c1ncccc1C2=O`, the GI50 in the assay with DU-145 prostate is 0.0653 µM; in the assay on HS 578T breast, 1.21 µM. The TGI in the assay on DU-145 prostate was 1.66 µM; in the assay with HS 578T breast it was 4.65 µM.
In the case of `CN(C)CCCNc1c2ccccc2nc2cccc([N+](=O)[O-])c12`, the TGI in the assay on DU-145 prostate is 0.0131 µM; in the assay on HS 578T breast it was 0.0148 µM; in the assay on SR leukemia, 0.0576 µM; in the assay with MDA-MB-435 it was 0.00242 µM.
On to `CSc1nc(NC2OCC(O)C(O)C2O)c(N)c(=O)n1C` (stereo not drawn), for which the TGI in the assay on P388 leukemia was more than 100 µM.
As to `Cc1cc(N=Cc2c(CO)cnc(C)c2O)c(N=Cc2c(CO)cnc(C)c2O)cc1C.[Zn]`, the TGI in the assay with DU-145 prostate, in the assay on HS 578T breast, in the assay on SR leukemia and with MDA-MB-435 was more than 100 µM each time. Further, in the assay on SR leukemia, the GI50 was more than 100 µM.
